Experimental data published in paper PMC3394890 (Therapeutic Drug Monitoring, 2012).
Like-named read-outs stand apart in the source and are kept apart here. Bridge positions count the residues as written; N and C are the ends. Square brackets hold non-standard residues; d marks the D form. Peptide text beside a SMILES is read from it. * marks the point of attachment. Heptanoyl(6-Me) = CC(C)CCCCC(=O)*; X1 = CC[C@H](C)CCCCC(=O)*; Dab = NCC[C@H](N)C(=O)O

Experiments:
[1] = Polymyxin B1 and B2 plasma levels in further patient samples; conditions: human, in vivo, iv
[2] = human, in vivo
[3] = type: in vitro ADME; conditions: human EDTA plasma QC samples

SMILES | Plasma concentration of the patient sample of Figure 1E/F [1] | half-life ([2]; female, iv) | level at 0 h ([2]; female, iv, 1.5 mg/kg) | level at 12 h ([2]; female, iv, 1.5 mg/kg) | Ratio of polymyxin B2 to polymyxin B1+polymyxin B2 in plasma, mean [2] | Ratio of polymyxin B2 to polymyxin B1+polymyxin B2 in plasma, range [2] | Stability during repetitive freeze-thaw cycles [3] | Time stable at 4°C ([3]; 4°C) | Time stable at room temperature ([3]; 22°C) | Time stable at −80°C ([3]; −80°C) | Cmax ([2]; female, iv, 1.5 mg/kg) | half-life ([2]; female, iv, 1.5 mg/kg)
CC(C)CCCCC(=O)N[C@@H](CCN)C(=O)N[C@H](C(=O)N[C@@H](CCN)C(=O)N[C@H]1CCNC(=O)[C@H]([C@@H](C)O)NC(=O)[C@H](CCN)NC(=O)[C@H](CCN)NC(=O)[C@H](CC(C)C)NC(=O)[C@@H](Cc2ccccc2)NC(=O)[C@H](CCN)NC1=O)[C@@H](C)O [polymyxin B2] ({Heptanoyl(6-Me)}-[Dab]T[Dab][Dab][Dab][dF]L[Dab][Dab]T; lactam 4-C) | 322 ng/mL | 5.4 h | 252 ng/mL | 214 ng/mL | 0.15 | 0.13-0.16 | – | – | – | – | – | –
CC[C@H](C)CCCCC(=O)N[C@@H](CCN)C(=O)N[C@H](C(=O)N[C@@H](CCN)C(=O)N[C@H]1CCNC(=O)[C@H]([C@@H](C)O)NC(=O)[C@H](CCN)NC(=O)[C@H](CCN)NC(=O)[C@H](CC(C)C)NC(=O)[C@@H](Cc2ccccc2)NC(=O)[C@H](CCN)NC1=O)[C@@H](C)O [polymyxin B1] (X1-[Dab]T[Dab][Dab][Dab][dF]L[Dab][Dab]T; lactam 4-C) | – | – | 1400 ng/mL | 1080 ng/mL | – | – | at least three repetitive freeze-thaw cycles | at least 72 h | at least 24 h | at least 3 months | 4830 ng/mL | 4.7 h
